Data as given in patent US6737383B1, “Herbicidal oxadiazolidines” (priority 1999, dated 2004).

Assays:
[1] = tested on: wild oat; assay: Test B pre/postemergence wild oat; type: in vivo, Avena fatua
Procedure, shortened: (§1)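 Herbicidal effect was estimated by eye on a ten-point control scale after plants spent twelve to sixteen days in a greenhouse following soil or foliar treatment. Foliar sprays targeted plants at one to four leaves; all doses were formulated in a non-phytotoxic solvent with surfactant.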

[2] = tested on: bedstraw; assay: Test B pre/postemergence bedstraw; type: in vivo, Galium aparine
Procedure, shortened: as §1

[3] = tested on: bamyardgrass; assay: Test B flood test barnyardgrass; type: in vivo, Echinochloa crus-galli
Procedure, shortened: (§2)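 Read-out is a visual response score from 0 (no effect) to 10 (complete control), assigned by comparison with untreated controls. Treatment was applied at the 2-leaf stage, and plants stayed in the greenhouse for twelve to sixteen days before scoring.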

[4] = tested on: blackgrass; assay: Test B pre/postemergence blackgrass; type: in vivo, Alopecurus myosuroides
Procedure, shortened: as §1

[5] = tested on: smallflower flatsedge; assay: Test B flood test smallflower flatsedge; type: in vivo, Cyperus difformis
Procedure, shortened: as §2

[6] = tested on: purple nutsedge; assay: Test B pre/postemergence purple nutsedge; type: in vivo, Cyperus rotundus
Procedure, shortened: as §1

[7] = tested on: surinam grass; assay: Test B pre/postemergence surinam grass; type: in vivo, Brachiaria decumbens
Procedure, shortened: as §1

[8] = tested on: duck salad; assay: Test B flood test duck salad; type: in vivo, Heteranthera limosa
Procedure, shortened: as §2

[9] = tested on: pigweed; assay: Test B pre/postemergence pigweed; type: in vivo, Amaranthus retroflexus
Procedure, shortened: as §1

[10] = tested on: giant foxtail; assay: Test B pre/postemergence giant foxtail; type: in vivo, Setaria faberii
Procedure, shortened: as §1

[11] = tested on: sugar beet; assay: Test B pre/postemergence sugar beet; type: in vivo, Beta vulgaris
Procedure, shortened: as §1

[12] = tested on: soybean; assay: Test B pre/postemergence soybean; type: in vivo, Glycine max
Procedure, shortened: as §1

[13] = tested on: cocklebur; assay: Test B pre/postemergence cocklebur; type: in vivo, Xanthium strumarium
Procedure, shortened: as §1

[14] = tested on: morningglory; assay: Test B pre/postemergence morningglory; type: in vivo, Ipomoea hederacea
Procedure, shortened: as §1

[15] = tested on: rape; assay: Test B pre/postemergence rape; type: in vivo, Brassica napus
Procedure, shortened: as §1

[16] = tested on: wheat; assay: Test B pre/postemergence wheat; type: in vivo, Triticum aestivum
Procedure, shortened: as §1

[17] = Preemergence, Rate 62 g/ha, scale of 0 to 10 where 0 is no effect and 10 is complete control
[18] = Preemergence, Rate 250 g/ha, scale of 0 to 10 where 0 is no effect and 10 is complete control
[19] = Preemergence, Rate 500 g/ha, scale of 0 to 10 where 0 is no effect and 10 is complete control
[20] = Rate 62 g/ha, Postemergence, scale 0 to 10 (0 no effect, 10 complete control)
[21] = Rate 125 g/ha, Postemergence, scale of 0 to 10 where 0 is no effect and 10 is complete control
[22] = Rate 250 g/ha, Postemergence, scale of 0 to 10 where 0 is no effect and 10 is complete control
[23] = Rate 500 g/ha, Postemergence, scale 0 to 10, 0 no effect, 10 complete control
[24] = Rate 62 g/ha, headed Pre-emergence (flood test species), scale 0 to 10 (0 no effect, 10 complete control)
[25] = Rate 125 g/ha, Pre-emergence, flood test species, scale 0 to 10 where 0 is no effect and 10 is complete control
[26] = Rate 250 g/ha, Pre-emergence, flood-test species, scale 0 to 10, 0 is no effect, 10 is complete control
[27] = Rate 500 g/ha, Pre-emergence, flood test species, scale 0 to 10 (0 no effect, 10 complete control)

Cc1ccccc1-n1c(=O)on(C(=O)N(c2ccc(OC(F)(F)F)cc2)C(C)C)c1=O [Compound 300]
Wild oats plant response rating [1, 17]: 0 | Wild oats plant response rating (0 to 10 scale) ([1]; Preemergence, Rate 125 g/ha): 0 | Wild oats plant response rating [1, 18]: 0 | Wild oats plant response rating [1, 19]: 3 | Wild oats plant response rating [1, 20]: 0 | Wild oats plant response rating [1, 21]: 0 | Plant response rating, Wild oats [1, 22]: 0 | Bedstraw plant response rating [2, 18]: 0 | Bedstraw plant response rating [2, 19]: 8 | Bedstraw plant response rating [2, 20]: 0 | Bedstraw plant response rating [2, 21]: 0 | Plant response rating, Bedstraw [2, 22]: 0 | Bedstraw plant response rating [2, 23]: 0 | Barnyardgrass plant response rating [3, 24]: 0 | Barnyardgrass plant response rating [3, 25]: 0 | Barnyardgrass plant response rating [3, 26]: 0 | Barnyardgrass plant response rating [3, 27]: 0 | Blackgrass plant response rating [4, 17]: 0 | Blackgrass plant response rating (0 to 10 scale) ([4]; Preemergence, Rate 125 g/ha): 0 | Blackgrass plant response rating [4, 18]: 0 | Blackgrass plant response rating [4, 19]: 0 | Blackgrass plant response rating [4, 20]: 0 | Blackgrass plant response rating [4, 21]: 0 | Plant response rating, Blackgrass [4, 22]: 0 | Blackgrass plant response rating [4, 23]: 0 | S. Flatsedge plant response rating [5, 24]: 0 | S. Flatsedge plant response rating [5, 25]: 0 | S. Flatsedge plant response rating [5, 26]: 0 | S. Flatsedge plant response rating [5, 27]: 0 | Nutsedge plant response rating [6, 17]: 0 | Nutsedge plant response rating (0 to 10 scale) ([6]; Preemergence, Rate 125 g/ha): 0 | Nutsedge plant response rating [6, 18]: 0 | Nutsedge plant response rating [6, 19]: 0 | Nutsedge plant response rating [6, 20]: 0 | Nutsedge plant response rating [6, 21]: 0 | Plant response rating, Nutsedge [6, 22]: 0 | B. signalgrass plant response rating [7, 17]: 0 | B. signalgrass plant response rating (0 to 10 scale, 0 is no effect, 10 is complete control) ([7]; Preemergence, Rate 125 g/ha): 0 | B. signalgrass plant response rating [7, 18]: 0 | B. signalgrass plant response rating [7, 19]: 2 | B. signalgrass plant response rating [7, 20]: 0 | B. signalgrass plant response rating [7, 21]: 0 | Plant response rating, B. signalgrass [7, 22]: 0 | B. signalgrass plant response rating [7, 23]: 0 | Ducksalad plant response rating [8, 24]: 0 | Ducksalad plant response rating [8, 25]: 0 | Ducksalad plant response rating [8, 26]: 0 | Ducksalad plant response rating [8, 27]: 0 | Redroot pigweed plant response rating [9, 17]: 0 | Redroot pigweed plant response rating (0 to 10 scale) ([9]; Preemergence, Rate 125 g/ha): 0 | Redroot pigweed plant response rating [9, 18]: 0 | Redroot pigweed plant response rating [9, 19]: 0 | Redroot pigweed plant response rating [9, 20]: 0 | Redroot pigweed plant response rating [9, 21]: 0 | Plant response rating, Redroot pigweed [9, 22]: 0 | Giant foxtail plant response rating [10, 17]: 0 | Giant foxtail plant response rating (0 to 10 scale) ([10]; Preemergence, Rate 125 g/ha): 5 | Giant foxtail plant response rating [10, 18]: 9 | Giant foxtail plant response rating [10, 19]: 10 | Giant foxtail plant response rating [10, 20]: 0 | Giant foxtail plant response rating [10, 21]: 0 | Plant response rating, Giant foxtail [10, 22]: 0 | Sugarbeets plant response rating [11, 17]: 0 | Sugarbeets plant response rating (0 to 10 scale) ([11]; Preemergence, Rate 125 g/ha): 0 | Sugarbeets plant response rating [11, 18]: 0 | Sugarbeets plant response rating [11, 19]: 0 | Sugarbeets plant response rating [11, 20]: 0 | Sugarbeets plant response rating [11, 21]: 0 | Plant response rating, Sugarbeets [11, 22]: 0 | Soybean plant response rating [12, 17]: 0 | Soybean plant response rating (0 to 10 scale) ([12]; Preemergence, Rate 125 g/ha): 0 | Soybean plant response rating [12, 18]: 0 | Soybean plant response rating [12, 19]: 0 | Soybean plant response rating [12, 20]: 1 | Soybean plant response rating [12, 21]: 2 | Plant response rating, Soybean [12, 22]: 2 | Cocklebur plant response rating [13, 17]: 0 | Cocklebur plant response rating (0 to 10 scale) ([13]; Preemergence, Rate 125 g/ha): 0 | Cocklebur plant response rating [13, 18]: 0 | Cocklebur plant response rating [13, 20]: 0 | Cocklebur plant response rating [13, 21]: 0 | Plant response rating, Cocklebur [13, 22]: 0 | Cocklebur plant response rating [13, 23]: 0 | Morningglory plant response rating [14, 17]: 0 | Morningglory plant response rating (0 to 10 scale) ([14]; Preemergence, Rate 125 g/ha): 0 | Morningglory plant response rating [14, 18]: 0 | Morningglory plant response rating [14, 19]: 0 | Morningglory plant response rating [14, 20]: 0 | Morningglory plant response rating [14, 21]: 0 | Plant response rating, Morningglory [14, 22]: 0 | Rape plant response rating [15, 17]: 0 | Rape plant response rating (0 to 10 scale) ([15]; Preemergence, Rate 125 g/ha): 0 | Rape plant response rating [15, 18]: 0 | Rape plant response rating [15, 19]: 0 | Rape plant response rating [15, 20]: 0 | Rape plant response rating [15, 21]: 0 | Plant response rating, Rape [15, 22]: 0 | Wheat plant response rating [16, 17]: 0 | Wheat plant response rating (0 to 10 scale) ([16]; Preemergence, Rate 125 g/ha): 0 | Wheat plant response rating [16, 18]: 0 | Wheat plant response rating [16, 19]: 2 | Wheat plant response rating [16, 20]: 0 | Wheat plant response rating [16, 21]: 0 | Plant response rating, Wheat [16, 22]: 0
